From ChEMBL document CHEMBL5532646, “Discovery of 4-(N-dithiobenzyl piperazine)-1,8-naphthalimide as a potent multi-target antitumor agent with good efficacy, limited toxicity, and low resistance” (Eur J Med Chem, 2024)
Active and inactive are the calls of the source. No cut-off for these calls is given here.

Legend:
[1] = Toxicity in nude mouse model xenografted with human T24 cells assessed as pathological change in liver at 15 mg/kg, ip administered once every two days for 21 days; assay type: organism-based, T-24; conditions: in vivo, 504 h, time 21 day
T-24 [2] = test: Induction of cell cycle arrest at G2/M phase in human T24 cells at 8 uM incubated for 24 hrs by flow cytometry (reference value: 12.30 %); assay type: functional
T-24 [3] = test: Induction of cell cycle arrest at G1/S phase in human T24 cells incubated for 24 hrs by flow cytometry; assay type: functional, cell-based; conditions: dose 2-8 µM
[4] = Toxicity in nude mouse model xenografted with human HepG2 cells assessed as pathological change in spleen at 15 mg/kg, ip administered once every two days for 21 days; assay type: organism-based; conditions: in vivo, 504 h, time 21 day
T-24 [5] = test: Induction of cell cycle arrest at G2/M phase in human T24 cells at 5 uM incubated for 24 hrs by flow cytometry (reference value: 12.30 %); assay type: functional
[6] = Toxicity in nude mouse model xenografted with human T24 cells assessed as pathological change in spleen at 15 mg/kg, ip administered once every two days for 21 days; assay type: organism-based, T-24; conditions: in vivo, 504 h, time 21 day
T-24 [7] = test: Induction of autophagy in human T24 cells assessed as increase in LC-3 level at 2 to 8 uM incubated for 24 hrs by Western blot analysis; assay type: functional, cell-based; conditions: dose 2-8 µM
T-24 [8] = test: Induction of apoptosis in human T24 cells assessed as increase in Bak level at 2 to 8 uM incubated for 24 hrs by Western blot analysis; assay type: functional, cell-based; conditions: dose 2-8 µM
T-24 [9] = test: Induction of cell cycle arrest at S phase in human T24 cells at 5 uM incubated for 24 hrs by flow cytometry (reference value: 12.39 %); assay type: functional
T-24 [10] = test: Anti-migratory activity against human T24 cells incubated upto 48 hrs by wound healing assay; assay type: functional, cell-based
T-24 [11] = test: Induction of apoptosis in human T24 cells assessed as increase in Bax level at 2 to 8 uM incubated for 24 hrs by Western blot analysis; assay type: functional, cell-based; conditions: dose 2-8 µM
T-24 [12] = test: Induction of autophagy in human T24 cells assessed as decrease in P62 level at 2 to 8 uM incubated for 24 hrs by Western blot analysis; assay type: functional, cell-based; conditions: dose 2-8 µM
T-24 [13] = test: Induction of ferroptosis in human T24 cells at 5 uM incubated for 24 hrs by KEGG analysis; assay type: functional, cell-based
T-24 [14] = test: Induction of cell cycle arrest at S phase in human T24 cells at 2 uM incubated for 24 hrs by flow cytometry (reference value: 12.39 %); assay type: functional
A549 = test: Antiproliferative activity against human A549 cells incubated for 48 hrs by MTT assay; assay type: functional, cell-based
HepG2 = test: Antiproliferative activity against human HepG2 cells xenografted in nude mouse model assessed as tumor inhibition rate at 15 mg/kg, ip administered once every two days for 21 days relative to control; assay type: functional; conditions: HepG2, 504 h, time 21 day
T-24 [15] = test: Induction of cell cycle arrest at G0/G1 phase in human T24 cells at 5 uM incubated for 24 hrs by flow cytometry (reference value: 75.31 %); assay type: functional
T-24 [16] = test: Anti-migratory activity against human T24 cells at 5 uM incubated upto 48 hrs in presence of FR180204 by wound healing assay; assay type: functional, cell-based
T-24 [17] = test: Effect on cell cycle pathway in human T24 cells at 5 uM incubated for 24 hrs by KEGG analysis; assay type: functional, cell-based
T-24 [18] = test: Induction of apoptosis in human T24 cells assessed as increase in cleaved PARP level at 2 to 8 uM incubated for 24 hrs by Western blot analysis; assay type: functional, cell-based; conditions: dose 2-8 µM
T-24 [19] = test: Antitumor activity against human T24 cells assessed as effect on ferroptosis signaling pathway at 5 uM incubated for 24 hrs by TMT/iTRAQ analysis; assay type: functional, cell-based
[20] = Toxicity in nude mouse model xenografted with human HepG2 cells assessed as pathological change in heart at 15 mg/kg, ip administered once every two days for 21 days; assay type: organism-based; conditions: in vivo, 504 h, time 21 day

## CN(C)CCN1C(=O)c2cccc3c(N4CCN(C(=S)SCc5ccccc5)CC4)ccc(c23)C1=O
[1]
  Activity: Non-Toxic
T-24 [2]
  Activity: 16.61%
T-24 [3]
  Activity: Dose-Dependent Effect
[4]
  Activity: Non-Toxic
T-24 [5]
  Activity: 18.36%
[6]
  Activity: Non-Toxic
T-24 [7]
  Activity: Active
T-24 [8]
  Activity: Active
T-24 [9]
  Activity: 30.58%
T-24 [10]
  Activity: Dose-Dependent Effect
T-24 [11]
  Activity: Active
T-24 [12]
  Activity: Active
T-24 [13]
  Activity: Active
T-24 [14]
  Activity: 36.93%
A549
  Activity: Active
HepG2
  inhibition in vivo at 15 mg/kg: 50%
T-24 [15]
  Activity: 51.06%
T-24 [16]
  Activity: inactive
T-24 [17]
  Activity: Active
T-24 [18]
  Activity: Active
T-24 [19]
  Activity: Active
[20]
  Activity: Non-Toxic
